Experimental data as given in PubChem BioAssay (NCI).
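Cultured in 96-well plates, cells were exposed to test compound for 48 hours across five concentrations. Here, GI50 denotes the concentration required for 50% inhibition of growth. At the TGI there is no net growth.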

Tests used:
Test in all cases: growth of human tumour cells (NCI), 48 h
[1] = test system: 786-0 renal
[2] = test system: A498 renal
[3] = test system: A549 NSCLC
[4] = test system: ACHN renal
[5] = test system: BT-549 breast
[6] = test system: CAKI-1 renal
[7] = test system: CCRF-CEM leukemia
[8] = test system: COLO 205 colon
[9] = test system: DU-145 prostate
[10] = test system: EKVX NSCLC
[11] = test system: HCC-2998 colon
[12] = test system: HCT-116 colon
[13] = test system: HCT-15 colon
[14] = test system: HL-60(TB) leukemia
[15] = test system: HOP-62 NSCLC
[16] = test system: HOP-92 NSCLC
[17] = test system: HS 578T breast
[18] = test system: HT29 colon
[19] = test system: IGROV1 ovarian
[20] = test system: K-562 leukemia
[21] = test system: KM12 colon
[22] = test system: LOX IMVI melanoma
[23] = test system: M14 melanoma
[24] = test system: MALME-3M melanoma
[25] = test system: MCF7 breast
[26] = test system: MDA-MB-231 breast
[27] = test system: MDA-MB-435
[28] = test system: MOLT-4 leukemia
[29] = test system: NCI-H226 lung
[30] = test system: NCI-H23 lung
[31] = test system: NCI-H460 lung
[32] = test system: NCI-H522 lung
[33] = test system: NCI/ADR-RES ovarian
[34] = test system: OVCAR-3 ovarian
[35] = test system: OVCAR-4 ovarian
[36] = test system: OVCAR-5 ovarian
[37] = test system: OVCAR-8 ovarian
[38] = test system: PC-3 prostate
[39] = test system: RPMI-8226 leukemia
[40] = test system: RXF 393 renal
[41] = test system: SF-268 CNS
[42] = test system: SF-295 CNS
[43] = test system: SF-539 CNS
[44] = test system: SK-MEL-2 melanoma
[45] = test system: SK-MEL-28 melanoma
[46] = test system: SK-MEL-5 melanoma
[47] = test system: SK-OV-3 ovarian
[48] = test system: SN12C renal
[49] = test system: SNB-19 CNS
[50] = test system: SNB-75 CNS
[51] = test system: SR leukemia
[52] = test system: SW-620 colon
[53] = test system: T-47D breast
[54] = test system: TK-10 renal
[55] = test system: U251 CNS
[56] = test system: UACC-257 melanoma
[57] = test system: UACC-62 melanoma
[58] = test system: UO-31 renal

CCCCN(CCCC)CC(O)c1ccc(OCc2ccccc2)c2ccccc12 (stereo not given)
GI50 [1]: 2.56 µM | TGI [1]: 6.25 µM | GI50 [2]: 3.41 µM | TGI [2]: 14.5 µM | GI50 [3]: 8.45 µM | TGI [3]: 22.4 µM | GI50 [4]: 4.76 µM | TGI [4]: 18 µM | GI50 [5]: 5.32 µM | TGI [5]: 17.2 µM | GI50 [6]: 1.98 µM | TGI [6]: 10.9 µM | GI50 [7]: 3.35 µM | TGI [7]: 16.3 µM | GI50 [8]: 2.98 µM | TGI [8]: 12.1 µM | GI50 [9]: 8.63 µM | TGI [9]: 22.6 µM | GI50 [10]: 5.66 µM | TGI [10]: 20.2 µM | GI50 [11]: 2.36 µM | TGI [11]: 6.34 µM | GI50 [12]: 2.84 µM | TGI [12]: 11.7 µM | GI50 [13]: 2.58 µM | TGI [13]: 7.47 µM | GI50 [14]: 2.51 µM | TGI [14]: 8.25 µM | GI50 [15]: 5.57 µM | TGI [15]: 19.7 µM | GI50 [16]: 1.87 µM | TGI [16]: 6.27 µM | GI50 [17]: 4.99 µM | TGI [17]: 30.9 µM | GI50 [18]: 1.52 µM | TGI [18]: 4.55 µM | GI50 [19]: 1.96 µM | TGI [19]: 16.7 µM | GI50 [20]: 2.82 µM | TGI [20]: 10.4 µM | GI50 [21]: 3.4 µM | TGI [21]: 19.5 µM | GI50 [22]: 1.94 µM | TGI [22]: 4.78 µM | GI50 [23]: 3.13 µM | TGI [23]: 11.4 µM | GI50 [24]: 2.27 µM | TGI [24]: 7.09 µM | GI50 [25]: 3.19 µM | TGI [25]: 10.9 µM | GI50 [26]: 2.28 µM | TGI [26]: 7.92 µM | GI50 [27]: 3.17 µM | TGI [27]: 14 µM | GI50 [28]: 3.54 µM | TGI [28]: 16.5 µM | GI50 [29]: 4.03 µM | TGI [29]: 16.7 µM | GI50 [30]: 3.01 µM | TGI [30]: 13 µM | GI50 [31]: 3.11 µM | TGI [31]: 10.5 µM | GI50 [32]: 1.72 µM | TGI [32]: 4.37 µM | GI50 [33]: 3.74 µM | TGI [33]: 16 µM | GI50 [34]: 4.9 µM | TGI [34]: 18.3 µM | GI50 [35]: 6.22 µM | TGI [35]: 17.4 µM | GI50 [36]: 3.86 µM | TGI [36]: 16.2 µM | GI50 [37]: 11 µM | TGI [37]: 24.4 µM | GI50 [38]: 2.9 µM | TGI [38]: 15.6 µM | GI50 [39]: 2.22 µM | TGI [39]: 5.81 µM | GI50 [40]: 2.39 µM | TGI [40]: 4.93 µM | GI50 [41]: 7.07 µM | TGI [41]: 24.2 µM | GI50 [42]: 3.13 µM | TGI [42]: 11.6 µM | GI50 [43]: 5.09 µM | TGI [43]: 17 µM | GI50 [44]: 3.39 µM | TGI [44]: 12 µM | GI50 [45]: 6.08 µM | TGI [45]: 18.8 µM | GI50 [46]: 1.88 µM | TGI [46]: 3.69 µM | GI50 [47]: 8.31 µM | TGI [47]: 22.7 µM | GI50 [48]: 3.25 µM | TGI [48]: 14.9 µM | GI50 [49]: 3.79 µM | TGI [49]: 16.3 µM | GI50 [50]: 3.6 µM | TGI [50]: 15.8 µM | GI50 [51]: 2.75 µM | TGI [51]: 8.4 µM | GI50 [52]: 3.32 µM | TGI [52]: 14.5 µM | GI50 [53]: 3.74 µM | TGI [53]: 14.9 µM | GI50 [54]: 2.15 µM | TGI [54]: 5.24 µM | GI50 [55]: 4.88 µM | TGI [55]: 17.1 µM | GI50 [56]: 5.21 µM | TGI [56]: 17.2 µM | GI50 [57]: 2.33 µM | TGI [57]: 11.2 µM | GI50 [58]: 0.974 µM | TGI [58]: 7.13 µM

CCN(CCCNC(=O)Cc1cc(=O)oc2cc(N(C)C)ccc12)CCNc1ccnc2cc(Cl)ccc12
GI50 [1]: 16 µM | TGI [1]: 36.8 µM | GI50 [2]: 12.4 µM | TGI [2]: > 100 µM | GI50 [3]: 11.3 µM | TGI [3]: 28.6 µM | GI50 [4]: 9.21 µM | TGI [4]: 24.3 µM | GI50 [5]: 14.4 µM | TGI [5]: 34.6 µM | GI50 [6]: 15.6 µM | TGI [6]: 39.5 µM | GI50 [7]: 4.38 µM | TGI [7]: 34 µM | GI50 [8]: 6.54 µM | TGI [8]: 20.8 µM | GI50 [9]: 18.4 µM | TGI [9]: 47.7 µM | GI50 [10]: 22.2 µM | TGI [10]: 70 µM | GI50 [11]: 7.87 µM | TGI [11]: 21.3 µM | GI50 [12]: 4.86 µM | TGI [12]: 17 µM | GI50 [13]: 10.4 µM | TGI [13]: 29.5 µM | GI50 [14]: 16.3 µM | TGI [14]: 44.2 µM | GI50 [15]: 13.2 µM | TGI [15]: 32.5 µM | GI50 [16]: 1.48 µM | TGI [16]: 13.8 µM | GI50 [17]: 13.3 µM | TGI [17]: 32.1 µM | GI50 [18]: 3.39 µM | TGI [18]: 12.1 µM | GI50 [19]: 13.1 µM | TGI [19]: 35.1 µM | GI50 [20]: 2.78 µM | TGI [20]: 7.56 µM | GI50 [21]: 12.5 µM | TGI [21]: 28.1 µM | GI50 [22]: 2 µM | TGI [22]: 5.01 µM | GI50 [23]: 2.08 µM | TGI [23]: 3.85 µM | GI50 [24]: 1.83 µM | TGI [24]: 3.86 µM | GI50 [25]: 7.42 µM | TGI [25]: 22.7 µM | GI50 [26]: 3.47 µM | TGI [26]: 16.9 µM | GI50 [27]: 2.29 µM | TGI [27]: 5.78 µM | GI50 [28]: 8.13 µM | TGI [28]: 28 µM | GI50 [29]: 10.9 µM | TGI [29]: 34.4 µM | GI50 [30]: 14 µM | TGI [30]: 34.3 µM | GI50 [31]: 9.54 µM | TGI [31]: 22.3 µM | GI50 [32]: 4.4 µM | TGI [32]: 16.2 µM | GI50 [33]: 30.7 µM | TGI [33]: > 100 µM | GI50 [34]: 14 µM | TGI [34]: 33.2 µM | GI50 [35]: 15 µM | TGI [35]: 41.4 µM | GI50 [36]: 16.5 µM | TGI [36]: 38.2 µM | GI50 [37]: 8.29 µM | TGI [37]: 61.7 µM | GI50 [38]: 13.8 µM | TGI [38]: 37.9 µM | GI50 [39]: 12.4 µM | TGI [39]: 38.8 µM | GI50 [40]: 1.72 µM | TGI [40]: 5.15 µM | GI50 [41]: 11.3 µM | TGI [41]: 30.5 µM | GI50 [42]: 12.4 µM | TGI [42]: 27.6 µM | GI50 [43]: 1.69 µM | TGI [43]: 3.42 µM | GI50 [44]: 12.6 µM | TGI [44]: 26.2 µM | GI50 [46]: 1.55 µM | TGI [46]: 2.93 µM | GI50 [47]: 23.9 µM | TGI [47]: 56.5 µM | GI50 [48]: 13.9 µM | TGI [48]: 36 µM | GI50 [49]: 18.9 µM | TGI [49]: 52.7 µM | GI50 [50]: 6.44 µM | TGI [50]: 25.6 µM | GI50 [51]: 2.6 µM | TGI [51]: 6.64 µM | GI50 [52]: 5.84 µM | TGI [52]: 19.4 µM | GI50 [53]: 12.5 µM | TGI [53]: 39.8 µM | GI50 [54]: 6.46 µM | TGI [54]: 20.3 µM | GI50 [55]: 3.4 µM | TGI [55]: 12.6 µM | GI50 [56]: 1.79 µM | TGI [56]: 3.65 µM | GI50 [57]: 3.36 µM | TGI [57]: 11.9 µM | GI50 [58]: 15.5 µM | TGI [58]: 40.6 µM
